The values that follow come from US20120129884A1, “PHOTOCHEMOTHERAPEUTIC HETEROCYCLIC AGENTS HAVING ANTIPROLIFERATIVE AND ANTINEOPLASTIC ACTIVITY” (UNIVERSITA DEGLI STUDI DI PADOVA, priority 2009, published 2012).

Structures are written as SMILES.

The subject of series [1] is T-cell leukaemia (Jurkat). In words: Phototoxicity after UV-A irradiation, MTT test. In kind it is cell-based, human. The note with it: mean ± SEM. The protocol:
(§1) The evaluation of phototoxic activity was carried out in some human tumour cell lines: T-cell leukaemia (Jurkat), chronic myeloid leukaemia (K-562), colon adenocarcinoma (LoVo) and breast adenocarcinoma (MCF-7). Cellular survival experiments were carried out without irradiation to verify an eventual toxicity of photosensitizer in the dark, and then after two times of irradiation (10 and 15 min of UV-A, which correspond to 2.5 and 3.75 J/cm^2, respectively), using lamps which emit mainly at 365 nm. Cell survival was checked after 72 h of compound incubation or after 72 h from UVA irradiation by Mosmann's MTT reduction test (3-[4,5-dimethyltiazol-2yl] 2,5-diphenyl tetrazolium bromide), (T. Mossman, Rapid colorimetric assay for cellular growth and survival: application to proliferation and cytotoxicity assays, J. Immunol. Meths. 1983, 65, 55-63). […] In Table 2, there are GI50 values, that is the compound concentration required for 50% cell survival, for each cell line and for every time of irradiation.
Background: Tetrazolium dyes change colour on reduction, which living cells bring about.

The subject of series [2] is chronic myeloid leukaemia (K-562). In words: Phototoxicity after UV-A irradiation, MTT test. Type of series: cell-based, human. The conditions noted are these: mean ± SEM. The protocol: as §1
Series [3] concerns breast adenocarcinoma (MCF-7). In words: Phototoxicity after UV-A irradiation, MTT test. Type of series: cell-based, human. The conditions noted are these: mean ± SEM. On the procedure:
as §1

The test system of series [4] is colon adenocarcinoma (LoVo). Description: Phototoxicity after UV-A irradiation, MTT test. In kind it is cell-based, human. The note with it: mean ± SEM. On the procedure:
as §1

The test system of a further series is plasmid (pBR322) DNA. Description: Plasmid strand break / DNA photodamage experiments (Fpg, Endo III). Type of series: biochemical. The conditions noted are these: pBR322, irradiated, Fpg and Endo III. On the procedure: After having assessed a weak affinity toward this macromolecule in the dark by such spectroscopic techniques as linear dichroism and fluorimetric titrations, some plasmid (pBR322) strand break experiments were carried out to check an eventual DNA photodamage by compounds. The formation of open circular or linear DNA from a supercoiled plasmid DNA was monitored by the separation of the three forms using agarose gel horizontal electrophoresis. Beside the formation of frank strand breaks, oxidative damages to purine and pyrimidine bases were also evaluated, incubating the irradiated mixture with the repair enzyme Fpg (Formamidopyrimidine glycosylase) and Endo III (Endonuclase III), respectively. (B. Epe, M. Pflaum, S. Boiteux, DNA damage induced by photosensitizers in cellular and cell-free systems, Mut. Res. 1993, 299, 135-145; T. A. Ciulla, J. R. Van Camp, E. Rosenfeld, I. Kochevar, Photosensitization of single-strand breaks in pBR322 DNA by Rose Bengal, Photochem. Photobiol. 1989, 49, 293-298).

Series [5] deals with human tumour cell lines (Jurkat, K-562, LoVo, MCF-7). In words: Phototoxicity / dark toxicity in all tested human tumour cell lines, MTT test. In kind it is cell-based. The conditions noted are these: after UVA irradiation. The protocol: as §1
[6] abbreviates: UV-A 2.5 J/cm^2, 72 h after irradiation.
Setting [7] is: UV-A 3.75 J/cm^2, 72 h after irradiation.
The mark [8] stands for this setting: K-562, UV-A 2.5 J/cm^2, 72 h after irradiation.
Setting [9] is: K-562, UV-A 3.75 J/cm^2, 72 h after irradiation.
Setting [10] is: MCF-7, UV-A 2.5 J/cm^2, 72 h after irradiation.
Setting [11] is: MCF-7, UV-A 3.75 J/cm^2, 72 h after irradiation.
The mark [12] stands for this setting: Homo sapiens, light or radiation study, 72 h, UV-A 2.5 J/cm^2, 72 h after irradiation.
[13] abbreviates: Homo sapiens, light or radiation study, 72 h, UV-A 3.75 J/cm^2, 72 h after irradiation.
The mark [14] stands for this setting: Homo sapiens, K562, light or radiation study, 72 h, K-562, UV-A 2.5 J/cm^2, 72 h after irradiation.
The mark [15] stands for this setting: Homo sapiens, K562, light or radiation study, 72 h, K-562, UV-A 3.75 J/cm^2, 72 h after irradiation.
[16] abbreviates: Homo sapiens, MCF7, light or radiation study, 72 h, MCF-7, UV-A 2.5 J/cm^2, 72 h after irradiation.
Setting [17] is: Homo sapiens, MCF7, light or radiation study, 72 h, MCF-7, UV-A 3.75 J/cm^2, 72 h after irradiation.

By GI50 is commonly meant the concentration that inhibits growth by half. Read a high GI50 as lower sensitivity of the cells. Turning to `N#Cc1cc2c([nH]c1=O)-c1c(ccn1S(=O)(=O)c1ccccc1)CC2` [Compound 9c, 1-(Phenylsulfonyl)-1,4,5,9-tetrahydro-8H-pyrrolo[3,2-h]quinolin-7-carbonitrile-8-one], the GI50 in series [1] (setting [6]), in series [1] (setting [7]), in series [2] (setting [8]), in series [2] (setting [9]), in series [3] (setting [10]) and in series [3] (setting [11]) was over 20 µM throughout. Also, the GI50 in series [4] (setting [6]) and in series [4] (setting [7]) was over 20 µM throughout.
On to `CCOC(=O)c1cc2c(n1Cc1ccc(C)cc1)-c1[nH]c(=O)c(S(=O)(=O)c3ccccc3)cc1CC2` [Compound 9l, Ethyl 1-(p-methyl-benzyl)-7-(phenylsulfonyl)-1,4,5,9-tetrahydro-8H-pyrrolo[3,2-h] quinolin-8-one-2-carboxylate], for which the GI50 in series [1] (setting [12]) is 1.5 ± 0.2 µM; in series [1] (setting [13]) it was 1.2 ± 0.1 µM; in series [2] (setting [14]), 1.2 ± 0.3 µM; in series [2] (setting [15]), 1 ± 0.1 µM; in series [3] (setting [16]) it was 1.7 ± 0.3 µM; in series [3] (setting [17]), 1.5 ± 0.2 µM. The GI50 was found to be 1.6 ± 0.2 µM in series [4] (setting [12]) and 1 ± 0.2 µM in series [4] (setting [13]).
In the case of `O=c1[nH]c2c(cc1S(=O)(=O)c1ccccc1)CCc1ccn(S(=O)(=O)c3ccccc3)c1-2` [Compound 9a, 1,7-bis(Phenylsulfonyl)-1,4,5,9-tetrahydro-8H-pyrrolo[3,2-h]quinolin-8-one], the GI50 in series [1] (setting [12]), in series [1] (setting [13]), in series [2] (setting [14]), in series [2] (setting [15]), in series [3] (setting [16]) and in series [3] (setting [17]) was over 20 µM in each case. Moreover, the GI50 in series [4] (setting [12]) and in series [4] (setting [13]) was over 20 µM throughout.
Regarding `CCOC(=O)c1cc2c(n1C)-c1[nH]c(=O)c(S(=O)(=O)c3ccccc3)cc1CC2` [Compound 9j, Ethyl 1-methyl-7-(phenylsulfonyl)-1,4,5,9-tetrahydro-8H-pyrrolo[3,2-h]quinolin-8-one-2-carboxylate], in the series with plasmid (pBR322) DNA, the “DNA photodamage (photocleavage, oxidative damages in DNA bases)” value is on record as “do not induce DNA photodamage”. The “GI50 (phototoxic)” value in series [5] was “submicromolar”. Further, the concentration for 50% growth inhibition (GI50) is 0.7 ± 0.1 µM in series [1] (setting [12]); 0.5 ± 0.1 µM in series [1] (setting [13]); 1 ± 0.1 µM in series [2] (setting [14]); 0.9 ± 0.1 µM in series [2] (setting [15]); 1.2 ± 0.1 µM in series [3] (setting [16]); 1 ± 0.1 µM in series [3] (setting [17]). For the same molecule, the GI50 was found to be 1.1 ± 0.1 µM in series [4] (setting [12]) and 1 ± 0.1 µM in series [4] (setting [13]).
`O=c1ccc2ccc3occc3c2o1` [Ang, angelicin, reference compound]: the GI50 in series [1] (setting [12]) turned out to be 1 ± 0.2 µM; in series [1] (setting [13]), 0.9 ± 0.1 µM; in series [2] (setting [14]), 1.2 ± 0.1 µM; in series [2] (setting [15]), 1 ± 0.1 µM; in series [3] (setting [16]), 4.4 ± 0.5 µM; in series [3] (setting [17]), 1.5 ± 0.2 µM. In addition, the 50% growth inhibitory concentration (GI50) in series [4] (setting [12]) came to 3.6 ± 0.4 µM; in series [4] (setting [13]), 1.5 ± 0.3 µM.
For `O=c1[nH]c2c(cc1S(=O)(=O)c1ccccc1)CCc1ccn(Cc3ccccc3)c1-2` [Compound 9e, 1-Benzyl-7-(phenylsulfonyl)-1,4,5,9-tetrahydro-8H-pyrrolo[3,2-h]quinolin-8-one], the GI50 was found to be 1.3 ± 0.2 µM in series [1] (setting [12]); 1.1 ± 0.1 µM in series [1] (setting [13]); 4.8 ± 0.5 µM in series [2] (setting [14]); 3.3 ± 0.5 µM in series [2] (setting [15]); 4 ± 0.6 µM in series [3] (setting [16]); 1.7 ± 0.7 µM in series [3] (setting [17]). The GI50 is 2.6 ± 0.2 µM in series [4] (setting [12]) and 2.2 ± 0.2 µM in series [4] (setting [13]).
Take `Cn1ccc2c1-c1[nH]c(=O)c(S(=O)(=O)c3ccccc3)cc1CC2` [Compound 9d, 1-Methyl-7-(phenylsulfonyl)-1,4,5,9-tetrahydro-8H-pyrrolo[3,2-h]quinolin-8-one]: the concentration for 50% growth inhibition (GI50) in series [1] (setting [12]), in series [1] (setting [13]), in series [2] (setting [14]), in series [2] (setting [15]), in series [3] (setting [16]) and in series [3] (setting [17]) was over 20 µM in each case. Besides, the GI50 in series [4] (setting [12]) and in series [4] (setting [13]) was over 20 µM in each case.
`O=c1[nH]c2c(cc1S(=O)(=O)c1ccccc1)CCc1cc[nH]c1-2` [Compound 9b, 7-(Phenylsulfonyl)-1,4,5,9-tetrahydro-8H-pyrrolo[3,2-h]quinolin-8-one]: the GI50 in series [1] (setting [12]), in series [1] (setting [13]), in series [2] (setting [14]), in series [2] (setting [15]), in series [3] (setting [16]) and in series [3] (setting [17]) was over 20 µM each time. The GI50 in series [4] (setting [12]) and in series [4] (setting [13]) was over 20 µM throughout.
For the molecule `CCOC(=O)c1cc2c([nH]1)-c1[nH]c(=O)c(S(=O)(=O)c3ccccc3)cc1CC2` [Compound 9i, Ethyl 7-(phenylsulfonyl)-1,4,5,9-tetrahydro-8H-pyrrolo[3,2-h]quinolin-8-one-2-carboxylate], the concentration for 50% growth inhibition (GI50) was determined as 3.5 ± 0.4 µM in series [1] (setting [12]); 2.5 ± 0.2 µM in series [1] (setting [13]); 6.1 ± 0.2 µM in series [2] (setting [14]); 5.4 ± 0.6 µM in series [2] (setting [15]); 6.1 ± 0.2 µM in series [3] (setting [16]); 4.3 ± 0.7 µM in series [3] (setting [17]). The values for the 50% growth inhibitory concentration (GI50) in series [4] (setting [12]) and in series [4] (setting [13]) were 5.5 ± 0.2 µM and 4.6 ± 0.4 µM, respectively.
With `O=c1[nH]c2c(cc1S(=O)(=O)c1ccccc1)CCc1ccn(-c3ccccc3)c1-2` [Compound 9f, 1-Phenyl-7-(phenylsulfonyl)-1,4,5,9-tetrahydro-8H-pyrrolo[3,2-h]quinolin-8-one], the GI50 in series [1] (setting [12]), in series [1] (setting [13]), in series [2] (setting [14]), in series [2] (setting [15]), in series [3] (setting [16]) and in series [3] (setting [17]) was over 20 µM in each case. The GI50 in series [4] (setting [12]) and in series [4] (setting [13]) was over 20 µM throughout.
Turning to `Cc1ccc(Cn2ccc3c2-c2[nH]c(=O)c(S(=O)(=O)c4ccccc4)cc2CC3)cc1` [Compound 9g, 1-(p-Methyl-benzyl)-7-(phenylsulfonyl)-1,4,5,9-tetrahydro-8H-pyrrolo[3,2-h]quinolin-8-one], the GI50 was 1.6 ± 0.1 µM in series [1] (setting [12]); 1.2 ± 0.2 µM in series [1] (setting [13]); 2.7 ± 0.2 µM in series [2] (setting [14]); 2.4 ± 0.1 µM in series [2] (setting [15]); 3.8 ± 0.5 µM in series [3] (setting [16]); 2.4 ± 0.2 µM in series [3] (setting [17]). Moreover, the 50% growth inhibitory concentration (GI50) is 2.7 ± 0.1 µM in series [4] (setting [12]) and 2.3 ± 0.2 µM in series [4] (setting [13]).
On to `COc1ccc(Cn2ccc3c2-c2[nH]c(=O)c(S(=O)(=O)c4ccccc4)cc2CC3)cc1` [Compound 9h, 1-(p-Methoxy-benzyl)-7-(phenylsulfonyl)-1,4,5,9-tetrahydro-8H-pyrrolo[3,24]quinolin-8-one], for which the GI50 in series [1] (setting [6]) turned out to be 1.6 ± 0.2 µM; in series [1] (setting [7]), 1.2 ± 0.2 µM; in series [2] (setting [8]), 3.1 ± 0.4 µM; in series [2] (setting [9]) it was 2.5 ± 0.2 µM; in series [3] (setting [10]) it was 4.2 ± 0.7 µM; in series [3] (setting [11]), 1.8 ± 0.1 µM. The values for the GI50 in series [4] (setting [6]) and in series [4] (setting [7]) were 2.8 ± 0.3 µM and 2 ± 0.2 µM, respectively.
